Assay results published in patent US6849598B1, “Therapeutic compositions comprising bactericidal/permeability-increasing (BPI) protein products” (XOMA, priority 1995, dated 2005).
Values after ≈ are worked out from the molar mass of the structure shown. Read-outs that look alike come from different tables or passages of the source.

What was measured:
[1] = system: S. pneumoniae; assay: Antibiotic susceptibility (MIC, Sensititre Trays) with rBPI21 poloxamer formulations; type: cell-based; conditions: for MIC: Streptococcus pneumoniae, read-out: Minimum Inhibitory Concentration
Method: The effect of therapeutic compositions of rBPI21 formulated with poloxamer, with or without EDTA, was evaluated on the antibiotic susceptibility of the multiple drug resistant A. baumannii, S. pneumoniae, E. faecium and P. aeruginosa organisms of Example 5. Therapeutic compositions were prepared containing 2 mg/mL rBPI21, (5 mM sodium citrate, 150 mM NaCl) with a 0.2% (w/v) concentration of PLURONIC F68, P103, P104, P105 or P123. The effect on the antibiotic susceptibility of the organisms was determined in Mueller-Hinton Broth plus Cations (CSMHB, Remel), or 40% pooled human serum in CSMHB (Sigma, St. Louis, Mo.), as follows.
Isolated colonies of the organism from overnight cultures were suspended in Microscan® Inoculum Water to a concentration equivalent to a 0.5 McFarland Standard (approximately 1×10^8 CFU/ml), determined using a Microscan® turbidimeter. Aliquots were transferred to either CSMHB or 40% pooled human serum in CSMHB. Each tube contained either a final concentration of 16 μg/mL rBPI21 or an equivalent volume of control buffer. Minimal inhibitory concentrations (MIC) for each antibiotic tested, i.e. the lowest concentration of antibiotic which inhibits visible growth, were determined using gram-negative (MB and MC) and gram-positive (MA) Sensititre Trays (Radiometer America, Westlake, Ohio), which allow for the rapid and simultaneous survey of a broad spectrum of standard antibiotics. Any other antimicrobial panel systems known in the art, such as the Microscan® (Dade Microscan, Sacramento, Calif.), Pasco (DIFCO, Detroit, Mich.) and Alamar (Alamar, Sacramento, Calif.) systems, may alternatively be used to assay for antibiotic susceptibility.
Tables 12-15 below display a summary of the results of the antibiotic screening panels, reported for each strain tested as the MIC of the tested antibiotics in the presence of the indicated rBPI21 therapeutic composition. The antibiotic susceptibility standards (interpretation of an MIC as clinically resistant (R), intermediate (I) or susceptible (S) according to NCCLS standards) applicable to the organism tested appear in superscript next to the MIC.

[2] = system: Candida albicans and Candida parapsilosis; conditions: BPI at 10^−6 M; pH 7.0 or 5.5; cited from earlier work
[3] = system: gram-negative bacteria; conditions: broad range of gram-negative bacteria; Elsbach and Weiss (1992); cited from earlier work
[4] = system: gram-positive organisms (Staphylococcus aureus, Staphylococcus epideimidis, Streptococcus faecalis, Bacillus subtilis, Micrococcus Iysodeikticus, Listeria …); conditions: BPI at 10^−6 M or 160 μg/ml; pH of either 7.0 or 5.5; cited from earlier work
[5] = system: human, rabbit and sheep red blood cells and several human tumor cell lines; conditions: BPI at 10^−6 M; cited from earlier work
[6] = CSMHB, 16 μg/mL rBPI21 with F68
[7] = CSMHB, 16 μg/mL rBPI21 with P103
[8] = CSMHB, 16 μg/mL rBPI21 with P104
[9] = CSMHB, 16 μg/mL rBPI21 with P105
[10] = CSMHB, 16 μg/mL rBPI21 with P123
[11] = Serum, 16 μg/mL rBPI21 with F68
[12] = Serum, 16 μg/mL rBPI21 with P103
[13] = Serum, 16 μg/mL rBPI21 with P104
[14] = Serum, 16 μg/mL rBPI21 with P105
[15] = Serum, 16 μg/mL rBPI21 with P123

Cc1onc(-c2ccccc2)c1C(=O)N[C@@H]1C(=O)N2[C@@H]1SC(C)(C)[C@@H]2C(=O)O [Oxacillin]
susceptibility interpretation of MIC (superscript) [1, 6]: R | susceptibility interpretation of MIC (superscript) [1, 7]: S | susceptibility interpretation of MIC (superscript) [1, 8]: S | susceptibility interpretation of MIC (superscript) [1, 9]: S | susceptibility interpretation of MIC (superscript) [1, 10]: S | susceptibility interpretation of MIC (superscript) ([1]; CSMHB, Control (no BPI)): R | susceptibility interpretation of MIC (superscript) [1, 11]: R | susceptibility interpretation of MIC (superscript) [1, 12]: R | susceptibility interpretation of MIC (superscript) [1, 13]: R | susceptibility interpretation of MIC (superscript) [1, 14]: R | susceptibility interpretation of MIC (superscript) [1, 15]: R | susceptibility interpretation of MIC (superscript) ([1]; Serum, Control (no BPI)): R | MIC [1, 6]: 32 µg/mL (≈ 79.7 µM) | MIC [1, 7]: < 0.25 µg/mL | MIC [1, 8]: 0.5 µg/mL (≈ 1.25 µM) | MIC [1, 9]: 1 µg/mL (≈ 2.49 µM) | MIC [1, 10]: 0.5 µg/mL (≈ 1.25 µM) | MIC ([1]; CSMHB, Control (no BPI)): 32 µg/mL (≈ 79.7 µM) | MIC [1, 11]: > 32 µg/mL | MIC [1, 12]: 32 µg/mL (≈ 79.7 µM) | MIC [1, 13]: 32 µg/mL (≈ 79.7 µM) | MIC [1, 14]: 32 µg/mL (≈ 79.7 µM) | MIC [1, 15]: 32 µg/mL (≈ 79.7 µM) | MIC ([1]; Serum, Control (no BPI)): 32 µg/mL (≈ 79.7 µM)

B1: BPI: bactericidal/permeability-increasing protein isolated from granules of mammalian polymorphonuclear leukocytes (protein, UniProt P17213 32-487, looked up)
Bactericidal …: VNPGVVVRISQKGLDYASQQGTAALQKELKRIKIPDYSDSFKIKHLGKGHYSFYSMDIREFQLPSSQISMVPNVGLKFSISNANIKISGKWKAQKRFLKMSGNFDLSIEGMSISADLKLGSNPTSGKPTITCSSCSSHINSVHVHISKSKVGWLIQLFHKKIESALRNKMNSQVCEKVTNSVSSELQPYFQTLPVMTKIDSVAGINYGLVAPPATTAETLDVQMKGEFYSENHHNPPPFAPPVMEFPAAHDRMVYLGLSDYFFNTAGLVYQEAGVLKMTLRDDMIPKESKFRLTTKFFGTFLPEVAKKFPNMKIQIHVSASTPPHLSVQPTGLTFYPAVDVQAFAVLPNSSLASLFLIGMHTTGSMEVSAESNRLVGELKLDRLLLELKHSNIGPFPVELLQDIMNYIVPILVLPRVNEKLQKGFPLPTPARVQLYNVVLQPHQNFLLFGADVVYK
toxic effect on fungi [2]: no toxic effect | concentrations at which BPI exhibits anti-bacterial activity (as low as) [3]: 10^−8 to 10^−9 M | toxic effect on gram-positive organisms [4]: no toxic effect | toxicity to higher eukaryotic cells [5]: non-toxic
